According to ChEMBL document CHEMBL1201861, “Genomics of Drug Sensitity in Cancer screening data, Wellcome Trust Sanger Institute”:
Structures can show the parent of a compound that is named as a salt.

How the values were obtained:
Test in all cases: cells
Type in all cases: functional, cell-based, Homo sapiens
NCI-H1793 = settings: Homo sapiens, NCI-H1793;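 further: cell growth inhibition, read out by a cell viability assay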
Description: SANGER: Inhibition of human NCI-H1793 cell growth in a cell viability assay.

SW1088 = settings: Homo sapiens, SW1088;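 further: growth inhibition of human SW1088 cells, read out by a cell viability assay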
Description: SANGER: Inhibition of human SW1088 cell growth in a cell viability assay.

NCI-H2122 = settings: Homo sapiens, NCI-H2122;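 further: growth inhibition of the cells, read out with a cell viability assay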
Description: SANGER: Inhibition of human NCI-H2122 cell growth in a cell viability assay.

SW1710 = settings: Homo sapiens, SW1710;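 further: growth inhibition of SW1710 cells, determined with a cell viability assay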
Description: SANGER: Inhibition of human SW1710 cell growth in a cell viability assay.

YKG-1 = settings: Homo sapiens, YKG-1;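 further: cell growth inhibition, read out with a viability assay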
Description: SANGER: Inhibition of human YKG-1 cell growth in a cell viability assay.

SK-N-AS = settings: Homo sapiens, SK-N-AS;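 further: growth inhibition of human SK-N-AS cells, measured with a cell viability assay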
Description: SANGER: Inhibition of human SK-N-AS cell growth in a cell viability assay.

P31-FUJ = settings: Homo sapiens, P31-FUJ;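 further: growth inhibition of P31-FUJ cells, read out with a viability assay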
Description: SANGER: Inhibition of human P31-FUJ cell growth in a cell viability assay.

KYSE-450 = settings: Homo sapiens, KYSE-450;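 further: cell growth inhibition measured by a viability assay in human KYSE-450 cells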
Description: SANGER: Inhibition of human KYSE-450 cell growth in a cell viability assay.

DMS-153 = settings: Homo sapiens, DMS-153
Description: SANGER: Inhibition of human DMS-153 cell growth in a cell viability assay.

ECC4 = settings: Homo sapiens, ECC4;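 further: growth inhibition of ECC4 cells, read out with a cell viability assay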
Description: SANGER: Inhibition of human ECC4 cell growth in a cell viability assay.

JIYOYE = settings: Homo sapiens, JIYOYE
Description: SANGER: Inhibition of human JiyoyeP-2003 cell growth in a cell viability assay.

NCI-H1792 = settings: Homo sapiens, NCI-H1792;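 further: growth inhibition of human NCI-H1792 cells, read out as cell viability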
Description: SANGER: Inhibition of human NCI-H1792 cell growth in a cell viability assay.

HTC-C3 = settings: Homo sapiens, HTC-C3;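 further: inhibition of cell growth, read out with a cell viability assay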
Description: SANGER: Inhibition of human HTC-C3 cell growth in a cell viability assay.

SNU-C1 = settings: Homo sapiens, SNU-C1;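 further: growth inhibition of SNU-C1 human cells, read out by a cell viability assay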
Description: SANGER: Inhibition of human SNU-C1 cell growth in a cell viability assay.

EB-3 = settings: Homo sapiens, EB-3;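 further: human EB-3 cells, growth inhibition read out via a cell viability assay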
Description: SANGER: Inhibition of human EB-3 cell growth in a cell viability assay.

KARPAS-422 = settings: Homo sapiens, KARPAS-422
Description: SANGER: Inhibition of human KARPAS-422 cell growth in a cell viability assay.

LP-1 = settings: Homo sapiens, LP-1;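 further: growth inhibition of human LP-1 cells, with the read-out taken from a cell viability assay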
Description: SANGER: Inhibition of human LP-1 cell growth in a cell viability assay.

H4 = settings: Homo sapiens, H4
Description: SANGER: Inhibition of human H4 cell growth in a cell viability assay.

BOKU = settings: Homo sapiens, BOKU;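 further: growth inhibition of the human BOKU cell line, read out by a cell viability assay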
Description: SANGER: Inhibition of human BOKU cell growth in a cell viability assay.

YAPC = settings: Homo sapiens, YAPC;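 further: growth inhibition of YAPC cells, measured with a cell viability assay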
Description: SANGER: Inhibition of human YAPC cell growth in a cell viability assay.

MG-63 = settings: Homo sapiens, MG-63;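 further: growth inhibition of human MG-63 cells, read out with a cell viability assay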
Description: SANGER: Inhibition of human MG-63 cell growth in a cell viability assay.

GDM-1 = settings: Homo sapiens, GDM-1;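 further: cell viability readout used to measure growth inhibition of human GDM-1 cells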
Description: SANGER: Inhibition of human GDM-1 cell growth in a cell viability assay.

NCI-H650 = settings: Homo sapiens, NCI-H650;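 further: growth inhibition of NCI-H650 cells, read out by a viability assay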
Description: SANGER: Inhibition of human NCI-H650 cell growth in a cell viability assay.

HPAF-II = settings: Homo sapiens, HPAF-II;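 further: growth inhibition of HPAF-II cells, read out with a cell viability assay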
Description: SANGER: Inhibition of human HPAF-II cell growth in a cell viability assay.

P12-Ichikawa = settings: Homo sapiens, P12-Ichikawa
CAL-39 = settings: Homo sapiens, CAL-39;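 further: cell viability assay measuring growth inhibition of CAL-39 cells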
Description: SANGER: Inhibition of human CAL-39 cell growth in a cell viability assay.

ESS-1 = settings: Homo sapiens, ESS-1;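 further: growth inhibition of human ESS-1 cells, read out by a cell viability assay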
Description: SANGER: Inhibition of human ESS-1 cell growth in a cell viability assay.

KMS-12-PE = settings: Homo sapiens, KMS-12-PE;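 further: growth inhibition of human KMS-12-PE cells, measured with a cell viability assay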
Description: SANGER: Inhibition of human KMS-12-PE cell growth in a cell viability assay.

CAL-51 = settings: Homo sapiens, CAL-51;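 further: human CAL-51 cell line, growth inhibition read out via a cell viability assay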
Description: SANGER: Inhibition of human CAL-51 cell growth in a cell viability assay.

NCI-H2009 = settings: Homo sapiens, NCI-H2009;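 further: cell viability assay measuring inhibition of NCI-H2009 cell growth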
Description: SANGER: Inhibition of human NCI-H2009 cell growth in a cell viability assay.

HCC1806 = settings: Homo sapiens, HCC1806;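 further: growth inhibition of the cancer cell line, determined with a cell viability assay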
Description: SANGER: Inhibition of human HCC1806 cell growth in a cell viability assay.

NCI-H2405 = settings: Homo sapiens, NCI-H2405;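 further: growth inhibition of the human cell line, read out with a cell viability assay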
Description: SANGER: Inhibition of human NCI-H2405 cell growth in a cell viability assay.

NCI-H460 = settings: Homo sapiens, NCI-H460;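 further: cell viability assay scoring growth inhibition of human NCI-H460 cells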
Description: SANGER: Inhibition of human NCI-H460 cell growth in a cell viability assay.

SW837 = settings: Homo sapiens, SW837;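 further: growth inhibition of SW837 cells, determined with a cell viability assay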
Description: SANGER: Inhibition of human SW837 cell growth in a cell viability assay.

CAL-27 = settings: Homo sapiens, CAL-27;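 further: Viability-based readout, IC50 reflecting inhibition of CAL-27 cell growth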
Description: SANGER: Inhibition of human CAL-27 cell growth in a cell viability assay.

KYSE-140 = settings: Homo sapiens, KYSE-140;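 further: cell viability assay measuring growth inhibition in human KYSE-140 cells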
Description: SANGER: Inhibition of human KYSE-140 cell growth in a cell viability assay.

G-401 = settings: Homo sapiens, G-401
Description: SANGER: Inhibition of human G-401 cell growth in a cell viability assay.

RT-112 = settings: Homo sapiens, RT-112
Description: SANGER: Inhibition of human RT-112 cell growth in a cell viability assay.

ARH-77 = settings: Homo sapiens, ARH-77;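 further: growth inhibition of ARH-77 cells, read out by a cell viability assay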
Description: SANGER: Inhibition of human ARH-77 cell growth in a cell viability assay.

AGS = settings: Homo sapiens, AGS;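 further: growth inhibition of AGS cells, determined with a cell viability assay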
Description: SANGER: Inhibition of human AGS cell growth in a cell viability assay.

MC-IXC = settings: Homo sapiens, MC-IXC;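 further: growth inhibition of MC-IXC cells, read out with a cell viability assay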
Description: SANGER: Inhibition of human MC-IXC cell growth in a cell viability assay.

DK-MG = settings: Homo sapiens, DK-MG;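 further: growth inhibition of DK-MG cells, read out with a cell viability assay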
Description: SANGER: Inhibition of human DK-MG cell growth in a cell viability assay.

LK-2 = settings: Homo sapiens, LK-2;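 further: growth inhibition of LK-2 cells, read out with a viability assay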
Description: SANGER: Inhibition of human LK-2 cell growth in a cell viability assay.

FaDu = settings: Homo sapiens, FaDu;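 further: cell viability readout of growth inhibition in FaDu cells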
Description: SANGER: Inhibition of human FADU cell growth in a cell viability assay.

MKN-45 = settings: Homo sapiens, MKN-45;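 further: growth inhibition of human MKN-45 cells, measured with a cell viability assay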
Description: SANGER: Inhibition of human MKN45 cell growth in a cell viability assay.

769-P = settings: Homo sapiens, 769-P
Description: SANGER: Inhibition of human 769-P cell growth in a cell viability assay.

UACC-893 = settings: Homo sapiens, UACC-893
Description: SANGER: Inhibition of human UACC-893 cell growth in a cell viability assay.

CAL-72 = settings: Homo sapiens, CAL-72;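 further: cell viability assay measuring inhibition of proliferation in the CAL-72 cell line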
Description: SANGER: Inhibition of human CAL-72 cell growth in a cell viability assay.

Structure (SMILES): CCC/C=C/C=C/C(=O)O[C@H]1/C(=C/C(=O)OC)C[C@H]2C[C@H]([C@@H](C)O)OC(=O)C[C@H](O)C[C@@H]3C[C@H](OC(C)=O)C(C)(C)[C@](O)(C[C@@H]4C/C(=C/C(=O)OC)C[C@H](/C=C/C(C)(C)[C@]1(O)O2)O4)O3 [BRYOSTATIN 1]
- IC50 (NCI-H1793): > 8 nM
- IC50 (SW1088): > 8 nM
- IC50 (NCI-H2122): > 8 nM
- IC50 (SW1710): > 8 nM
- IC50 (YKG-1): 4.13 nM
- IC50 (SK-N-AS): > 8 nM
- IC50 (P31-FUJ): > 8 nM
- IC50 (KYSE-450): > 8 nM
- IC50 (DMS-153): > 8 nM
- IC50 (ECC4): > 8 nM
- IC50 (JIYOYE): > 8 nM
- IC50 (NCI-H1792): > 8 nM
- IC50 (HTC-C3): > 8 nM
- IC50 (SNU-C1): > 8 nM
- IC50 (EB-3): > 8 nM
- IC50 (KARPAS-422): > 8 nM
- IC50 (LP-1): > 8 nM
- IC50 (H4): > 8 nM
- IC50 (BOKU): > 8 nM
- IC50 (YAPC): > 8 nM
- IC50 (MG-63): > 8 nM
- IC50 (GDM-1): > 8 nM
- IC50 (NCI-H650): > 8 nM
- IC50 (HPAF-II): > 8 nM
- IC50 (P12-Ichikawa): > 8 nM
- IC50 (CAL-39): > 8 nM
- IC50 (ESS-1): > 8 nM
- IC50 (KMS-12-PE): > 8 nM
- IC50 (CAL-51): > 8 nM
- IC50 (NCI-H2009): > 8 nM
- IC50 (HCC1806): > 8 nM
- IC50 (NCI-H2405): > 8 nM
- IC50 (NCI-H460): > 8 nM
- IC50 (SW837): > 8 nM
- IC50 (CAL-27): > 8 nM
- IC50 (KYSE-140): > 8 nM
- IC50 (G-401): > 8 nM
- IC50 (RT-112): > 8 nM
- IC50 (ARH-77): > 8 nM
- IC50 (AGS): > 8 nM
- IC50 (MC-IXC): > 8 nM
- IC50 (DK-MG): > 8 nM
- IC50 (LK-2): > 8 nM
- IC50 (FaDu): > 8 nM
- IC50 (MKN-45): > 8 nM
- IC50 (769-P): > 8 nM
- IC50 (UACC-893): > 8 nM
- IC50 (CAL-72): > 8 nM

Structure (SMILES): COC1=CC(c2cc3ccccc3[nH]2)=N/C1=C\c1[nH]c(C)cc1C [OBATOCLAX MESYLATE]
- IC50 (NCI-H1793): > 16000 nM
- IC50 (SW1088): 2780 nM
- IC50 (NCI-H2122): 93.8 nM
- IC50 (SW1710): 40.2 nM
- IC50 (YKG-1): 163 nM
- IC50 (SK-N-AS): 1050 nM
- IC50 (P31-FUJ): > 16000 nM
- IC50 (KYSE-450): < 62.5 nM
- IC50 (DMS-153): 2170 nM
- IC50 (ECC4): 5090 nM
- IC50 (JIYOYE): 203 nM
- IC50 (NCI-H1792): 377 nM
- IC50 (HTC-C3): 104 nM
- IC50 (SNU-C1): > 16000 nM
- IC50 (EB-3): 173 nM
- IC50 (KARPAS-422): 166 nM
- IC50 (LP-1): 213 nM
- IC50 (H4): 1150 nM
- IC50 (BOKU): 1280 nM
- IC50 (YAPC): 5990 nM
- IC50 (MG-63): 214 nM
- IC50 (GDM-1): 685 nM
- IC50 (NCI-H650): 283 nM
- IC50 (HPAF-II): 1940 nM
- IC50 (P12-Ichikawa): 73.5 nM
- IC50 (CAL-39): 229 nM
- IC50 (ESS-1): 72.5 nM
- IC50 (KMS-12-PE): 5350 nM
- IC50 (CAL-51): 40 nM
- IC50 (NCI-H2009): 347 nM
- IC50 (HCC1806): 124 nM
- IC50 (NCI-H2405): 347 nM
- IC50 (NCI-H460): 101 nM
- IC50 (SW837): 467 nM
- IC50 (CAL-27): 64.6 nM
- IC50 (KYSE-140): < 62.5 nM
- IC50 (G-401): 30.9 nM
- IC50 (RT-112): 666 nM
- IC50 (ARH-77): 110 nM
- IC50 (AGS): 386 nM
- IC50 (MC-IXC): 345 nM
- IC50 (DK-MG): 710 nM
- IC50 (LK-2): 50.6 nM
- IC50 (FaDu): 426 nM
- IC50 (MKN-45): 1990 nM
- IC50 (769-P): < 62.5 nM
- IC50 (UACC-893): 2860 nM
- IC50 (CAL-72): 534 nM
